This is an account of results in PMC3877901, “Screening Mangrove Endophytic Fungi for Antimalarial Natural Products” (Marine Drugs, 2013).

Data set [1] relates to A549 human lung adenocarcinoma epithelial cells. Briefly: In vitro toxicity assay: cytotoxicity against A549 cells (CellTiter 96 Aqueous One, 72 h). The following applies: for IC50: Homo sapiens, A549, 72 h, read-out: IC50 (nM) A549.
Data set [2] concerns Plasmodium falciparum (3D7, a drug sensitive strain). Briefly: Malaria assay: anti-malarial activity against Plasmodium falciparum (3D7). The data set is classed as cell-based.
Data set [3] relates to A549 human lung adenocarcinoma epithelial cells.
[4] abbreviates: Plasmodium falciparum 3D7, read-out: IC50 (nM) 3D7.
Where [5] appears, read: Plasmodium falciparum, 3D7, read-out: IC50 (nM) 3D7.

Structures are written as SMILES. “Also recorded” adds a separate entry of the source. Where two headings read alike, the source gives them in different places.

By IC50 is commonly meant the concentration needed to halve the response being measured.

For `O=C1C(O)=C([C@H]2CC[C@H](c3ccc(Cl)cc3)CC2)C(=O)c2ccccc21` [ATO, atovaquone, reference compound], the results for the IC50 in data set [1] and in data set [2] (setting [4]) were > 25000 nM and 0.3 nM, respectively.

In the case of `CCN(CC)CCCC(C)Nc1ccnc2cc(Cl)ccc12` (centres unmarked) [CQ, chloroquine, reference compound], the IC50 was > 25000 nM in data set [1] and 4.5 nM in data set [2] (setting [5]).

Turning to `CC(=O)OC1C2OC2C(C)(O)C(=O)C(C)CC=CC2C(O)C(C)=C(C)C3C(Cc4ccccc4)NC(=O)C213` (centres unmarked) [Compound 1], the IC50 in data set [2] (setting [5]) was < 20 nM.

Turning to `CC(=O)OC1C=CC(C)(O)C(=O)C(C)CC=CC2C(O)C(C)=C(C)C3C(Cc4ccccc4)NC(=O)C123` (centres unmarked) [Compound 2], the IC50 in data set [2] (setting [5]) worked out at 136 nM.

For the molecule `CC(=O)OC1C=CC(C)(O)C(=O)C(C)CC=CC2C(O)C3(C)OC3(C)C3C(Cc4ccccc4)NC(=O)C123` (centres unmarked) [Compound 3], the IC50 in data set [2] (setting [5]) is < 20 nM.

For the molecule `C=C1[C@@H](C)[C@H]2[C@H](Cc3ccccc3)NC(=O)[C@]23[C@H](OC(C)=O)/C=C/[C@@](C)(O)C(=O)[C@@H](C)C/C=C/[C@H]3[C@@H]1O` [Compound 4, cytochalasin D], the IC50 in data set [2] (setting [5]) is 25.8 nM.

As to `C=C1C(C)C2C(Cc3ccccc3)NC(=O)C23C(OC(C)=O)C=CC(C)(O)CC(C)CC=CC3C1O` (centres unmarked) [Compound 5], in data set [2] (setting [5]), the IC50 is < 20 nM.

`C=C1C(C)C2C(Cc3ccccc3)NC(=O)C23C(O)C=CC(C)(O)CC(C)CC=CC3C1O` (centres unmarked) [Compound 6]: the IC50 in data set [2] (setting [4]) is < 20 nM.

Turning to `CC(=O)OC1C=CC(C)(O)C(=O)C(C)CC2OC2C2C3OC3(C)C(C)C3C(Cc4ccccc4)N(C)C(=O)C132` (centres unmarked) [Compound 7], in data set [2] (setting [5]), the IC50 stood at 290 nM.

As for `CC(=O)OC1C=CC(C)(O)C(=O)C(C)CC=CC2C3OC3(C)C(C)C3C(Cc4ccccc4)N(C)C(=O)C123` (centres unmarked) [Compound 8], in data set [2] (setting [5]), the 50% inhibitory concentration (IC50) was 26 nM.

On to `C=C1C2CC3OC(=O)C=CC=CC(C(C)O)OCCC(C)=CC(=O)OCC4(CCC(C)=CC4O2)C13C` (centres unmarked) [Compound 10], for which the IC50 in data set [1] was < 200 nM; in data set [2] (setting [5]), < 20 nM.

As to `CCCc1c(Cl)c(OC)cc(OC)c1C(=O)O` [Compound 11, acremonisol A], the IC50 was > 38700 nM in data set [1] and 36000 nM in data set [2] (setting [4]). Moreover, the “antimalarial activity (in words)” value in data set [2] (P. falciparum 3D7) is reported as “devoid of antimalarial activity”.

As to `COc1ccc(C)c2c1C(=O)OC(C)C2` (centres unmarked) [Compound 12, 3,5-dimethyl-8-methoxy-3,4-dihydroisocoumarin], the IC50 in data set [1] and in data set [2] (setting [4]) was > 48500 nM throughout. In addition, the “antimalarial activity (in words)” value in data set [2] (P. falciparum 3D7) is on record as “devoid of antimalarial activity”.

`CC(=O)OC[C@]12Oc3ccc(-c4ccc5c(c4O)C(=O)C4=C(O)C[C@@H](C)[C@@H](OC(C)=O)[C@@]4(CO)O5)c(O)c3C(=O)C1=C(O)C[C@@H](C)[C@H]2OC(C)=O` [Compound 13, Dicerandrol B]: the IC50 in data set [1] and in data set [2] (setting [5]) was > 25000 nM in each case. Further, in data set [2], the “antimalarial activity (in words)” value is reported as “failed to show either activity”. Besides, the “cytotoxicity (in words)” value in data set [3] was “failed to show either activity”.

For the molecule `CC(=O)OC[C@]12Oc3ccc(-c4ccc5c(c4O)C(=O)C4=C(O)C[C@@H](C)[C@@H](OC(C)=O)[C@]4(CO)O5)c(O)c3C(=O)C1=C(O)C[C@@H](C)[C@H]2OC(C)=O` [Compound 14, dicerandrol D], the “S.I. A549/3D7 (selectivity index)” value in data set [1] turned out to be 13. The half-inhibitory concentration (IC50) came to 7800 nM in data set [1] and 600 nM in data set [2] (setting [5]). The “antimalarial activity (in words)” value in data set [2] is on record as “nanomolar antimalarial activity; also recorded: strong activity against P. falciparum; also recorded: nanomolar malaria activity”. The “cytotoxicity relative to malaria activity” value in data set [3] (human) was “at least 10 fold”.

As for `C[C@H]1CC(=O)O[C@@H]1[C@@]1(CO)CC(=O)c2c(ccc(-c3ccc(O)c4c3O[C@](CO)([C@H]3OC(=O)C[C@@H]3C)CC4=O)c2O)O1` [Compound 15, diaporthochromone A], the half-inhibitory concentration (IC50) in data set [1] and in data set [2] (setting [4]) was > 25000 nM throughout.

`CC1CC(=O)OC1C1(CO)CC(=O)c2c(ccc(-c3ccc4c(c3O)C(=O)CC(CO)(C3OC(=O)CC3C)O4)c2O)O1` (centres unmarked) [Compound 16, Diaporthochromone B]: the IC50 in data set [1] and in data set [2] (setting [4]) was > 25000 nM each time.

`CCC(C)CC(C)/C=C/C=C/C(=O)O` (centres unmarked) [Compound 18, (2E,4E)-6,8-Dimethyldeca-2,4-dienoic Acid]: the 50% inhibitory concentration (IC50) in data set [1] and in data set [2] (setting [4]) was > 25000 nM each time. Besides, the “antimalarial activity (in words)” value in data set [2] (P. falciparum 3D7) was “inactive”.

On to `CCCCC/C=C(/C(=O)O)C(C)C(=O)O` (centres unmarked) [Compound 19, piliformic acid], for which the IC50 in data set [1] and in data set [2] (setting [4]) was > 25000 nM throughout. Also, the “antimalarial activity (in words)” value in data set [2] (P. falciparum 3D7) is “inactive”.

For the molecule `C[C@H]1[C@@H](O)O[C@@H]2O[C@@]3(C)CC[C@H]4[C@H](C)CC[C@@H]1[C@@]24OO3` [DHA, dihydroartemisinin, reference compound], the figures for the IC50 in data set [1] and in data set [2] (setting [4]) were > 25000 nM and 0.8 nM, respectively.
